The source made the active and inactive calls. The calls are words filed in the database; no cut-off is given here.

The values that follow come from ChEMBL document CHEMBL6120940, “Discovery of N-Aryl-N'-[4-(aryloxy)cyclohexyl]squaramide-Based Inhibitors of LXR/SREBP-1c Signaling Pathway Ameliorating Steatotic Liver Disease: Navigating the Role of SIRT6 Activation” (J Med Chem, 2024).

Data set [1] deals with HepG2. The experiment in a line: Downregulation of LXR level in human HepG2 cells transfected with SIRT6 SiRNA at 10 uM preincubated for 30 mins followed by T0901317 addition and measured after 12 hrs. The class given is functional, cell-based. Particulars: time 12.5 hrs.
Data set [2] is described as follows: Metabolic stability in mouse liver microsomes at 1 uM measured after 30 mins in presence of NADPH regeneration system by LC-MS/MS analysis. As to conditions: read-out: Stability. The class given is ADME, Microsome.
The target in data set [3] is T1, Sterol regulatory element-binding protein 1 (Homo sapiens) (UniProt P36956).
T1 sequence (whole entry): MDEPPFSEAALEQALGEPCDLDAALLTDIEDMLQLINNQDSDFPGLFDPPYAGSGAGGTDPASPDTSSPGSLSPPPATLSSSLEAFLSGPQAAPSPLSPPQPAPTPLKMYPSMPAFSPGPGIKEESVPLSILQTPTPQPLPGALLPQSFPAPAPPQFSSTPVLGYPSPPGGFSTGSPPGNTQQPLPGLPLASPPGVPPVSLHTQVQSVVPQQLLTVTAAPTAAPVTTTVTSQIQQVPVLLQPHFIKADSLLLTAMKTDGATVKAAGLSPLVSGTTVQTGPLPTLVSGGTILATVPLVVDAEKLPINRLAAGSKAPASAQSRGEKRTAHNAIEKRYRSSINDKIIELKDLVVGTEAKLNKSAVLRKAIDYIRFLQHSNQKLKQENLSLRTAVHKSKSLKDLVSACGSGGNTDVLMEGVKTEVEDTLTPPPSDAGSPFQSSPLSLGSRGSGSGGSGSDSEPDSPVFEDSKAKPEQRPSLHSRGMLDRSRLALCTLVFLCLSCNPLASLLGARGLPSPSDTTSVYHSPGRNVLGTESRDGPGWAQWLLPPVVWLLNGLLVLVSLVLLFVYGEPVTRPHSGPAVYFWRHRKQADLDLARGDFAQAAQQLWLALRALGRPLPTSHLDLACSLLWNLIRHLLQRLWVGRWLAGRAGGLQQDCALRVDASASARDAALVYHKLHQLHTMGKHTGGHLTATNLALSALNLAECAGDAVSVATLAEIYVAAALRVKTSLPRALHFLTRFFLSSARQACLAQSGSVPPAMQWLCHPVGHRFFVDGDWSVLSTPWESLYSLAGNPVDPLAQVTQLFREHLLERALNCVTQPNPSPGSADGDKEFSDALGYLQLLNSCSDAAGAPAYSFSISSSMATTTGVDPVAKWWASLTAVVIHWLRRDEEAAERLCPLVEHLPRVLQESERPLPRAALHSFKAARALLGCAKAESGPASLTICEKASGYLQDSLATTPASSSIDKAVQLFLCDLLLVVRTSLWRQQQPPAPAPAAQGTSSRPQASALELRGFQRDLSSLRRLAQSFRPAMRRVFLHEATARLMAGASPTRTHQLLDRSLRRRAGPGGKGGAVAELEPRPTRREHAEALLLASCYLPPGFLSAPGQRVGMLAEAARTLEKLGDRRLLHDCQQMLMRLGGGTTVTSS
The experiment in a line: Inhibition of SREBP-1c transcriptional activity in human HepG2 cells expressing LXRalpha/RXRalpha assessed as reduction in SRE-luciferase level pretreated with compound for 30 mins followed by T0901317 addition and measured after 12 hrs by Dual-Glo luciferase assay. The class given is cell-based. As to conditions: dose 2.5-5 µM, time 12.5 hrs.

In data set [4] the target is T2, Oxysterols receptor LXR-alpha (Homo sapiens) (UniProt Q13133).
T2 sequence (whole entry): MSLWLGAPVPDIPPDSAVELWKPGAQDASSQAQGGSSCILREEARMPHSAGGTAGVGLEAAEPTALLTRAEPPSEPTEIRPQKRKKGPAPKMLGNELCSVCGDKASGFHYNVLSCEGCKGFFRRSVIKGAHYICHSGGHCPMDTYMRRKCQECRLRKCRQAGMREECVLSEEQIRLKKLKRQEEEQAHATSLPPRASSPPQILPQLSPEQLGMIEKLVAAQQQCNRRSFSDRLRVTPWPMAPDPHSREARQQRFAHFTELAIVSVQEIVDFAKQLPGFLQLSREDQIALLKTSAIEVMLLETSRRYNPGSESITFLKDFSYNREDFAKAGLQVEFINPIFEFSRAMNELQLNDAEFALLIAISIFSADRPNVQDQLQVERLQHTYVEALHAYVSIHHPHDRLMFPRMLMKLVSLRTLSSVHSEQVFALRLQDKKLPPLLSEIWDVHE
The data set can be described thus: Inhibition of LXRalpha in HEK293 cells expressing LXRE at 2.5 to 5 uM preincubated for 30 mins followed by T0901317 addition and measured after 24 hrs by Dual-glo luciferase assay. As to conditions: dose 2.5-5 µM, time 24.5 hrs. The class given is cell-based.

Data set [5] in a line: AUC last in 16 hrs fasted ICR mouse at 2 mg/kg, iv measured upto 8 hrs by LC-MS/MS analysis. The class given is ADME, organism-based. Particulars: in vivo.
Data set [6] has as its system HepG2. The experiment in a line: Downregulation of SREBP-1c expression level in human HepG2 cells at 10 uM pretreated with compound for 30 mins followed by T0901317 addition and measured after 12 hrs by immunocytochemical analysis. The class given is functional, cell-based. As to conditions: time 12.5 hrs.
The subject of data set [7] is HepG2. The experiment in a line: Downregulation of SREBP-1c expression level in nucleus of human HepG2 cells at 10 uM pretreated with compound for 30 mins followed by T0901317 addition and measured after 12 hrs by immunoblot analysis. As to conditions: time 12.5 hrs. The class given is functional, cell-based.
In data set [8] the test system is HepG2. The experiment in a line: Downregulation of acetylated histone H3K9 level in human HepG2 cells preincubated for 30 mins followed by GW3965 addition and measured after 12 hrs. Particulars: dose 5-10 µM, time 12.5 hrs. The class given is functional, cell-based.
Data set [9] has as its system HepG2. The data set can be described thus: Downregulation of SCD mRNA level in human HepG2 cells at 10 uM pretreated with compound for 30 mins followed by T0901317 addition and measured after 12 hrs by RT-qPCR analysis. The class given is functional, cell-based. As to conditions: time 12.5 hrs. (In qPCR the cycle at which signal appears reflects the starting amount.)

The subject of data set [10] is HepG2. The data set can be described thus: Effect on SREBP-1a in human HepG2 cells at 10 uM pretreated with compound for 30 mins followed by T0901317 addition and measured after 12 hrs by immunoblot analysis. The class given is functional, cell-based. As to conditions: time 12.5 hrs. In general terms: In western blotting, separated proteins are transferred to a membrane and probed.

In the next data set the test system is Hepatocyte. The experiment in a line: Effect on Acad-1 gene expression in mouse hepatocyte. The class given is functional, cell-based.
The nature of data set [11]: Tmax in 16 hrs fasted ICR mouse at 20 mg/kg, po measured upto 8 hrs by LC-MS/MS analysis. The class given is ADME, organism-based. Particulars: in vivo.
Data set [12] deals with Mus musculus. The data set can be described thus: Anti-lipogenic activity against high fat died induced male C57BL/6J mouse obesity model assessed as downregulation of F4/80 mRNA level at 15 mg/kg, po administered three times per week and measured after 5 weeks by RT-qPCT analysis. The class given is functional, organism-based.
Data set [13] concerns HepG2. The data set can be described thus: Downregulation of ACACA level in human HepG2 cells at 10 uM preincubated for 30 mins followed by OSS128167 addition and measured after 12 hrs. The class given is functional, cell-based. As to conditions: time 12.5 hrs.
The test system of data set [14] is HepG2. The experiment in a line: Downregulation of SREBP-1c expression in human HepG2 cells at 5 uM pretreated with compound for 30 mins followed by T0901317 addition and measured after 12 hrs in presence of compound C by immunoblot analysis. The class given is functional, cell-based. Particulars: time 12.5 hrs.
Data set [15] relates to HepG2. The data set can be described thus: Downregulation of SREBP-1c expression level in nucleus of human HepG2 cells at 10 uM pretreated with compound for 30 mins followed by GW3965 addition and measured after 12 hrs by immunoblot analysis. The class given is functional, cell-based. Particulars: time 12.5 hrs.
The subject of data set [16] is Mus musculus. The experiment in a line: Anti-lipogenic activity against high fat died induced male C57BL/6J mouse obesity model assessed as downregulation of Ccl5 mRNA level at 15 mg/kg, po administered three times per week and measured after 5 weeks by RT-qPCT analysis. The class given is functional, organism-based.

What is called AUC(0-t) is the area under the concentration-time curve up to a stated or last time point. A low value points to low exposure. Broadly, the Tmax is the time at which the peak concentration occurs. On to `COc1ccccc1Nc1c(N[C@H]2CC[C@H](Oc3ccc([N+](=O)[O-])cc3)CC2)c(=O)c1=O`, for which the outcome with HepG2 [1], in the data set on HepG2 [10], with Hepatocyte, with HepG2 [13] and with HepG2 [14] was inactive. Also, the remaining at 0.5 h, 1 µM in data set [2] amounted to 46.9%. For the same compound, in data set [3], the inhibition entry is “Dose-dependent-effect”. Further, the inhibition entry in data set [4] is “Active”. Besides, the AUC(0-t) at 8 h in [5] was determined as 2370 ng·h/mL. Also, the outcome with HepG2 [6], with HepG2 [7], in the data set with HepG2 [9], with Mus musculus [12], with HepG2 [15] and with Mus musculus [16] was Active. In the data set with HepG2 [8], the Activity entry is “Dose-dependent-effect”. In addition, in data set [11], the Tmax was determined as 18 min.
